Earlier results as cited in patent US8618066B1 (priority 2003, dated 2013).
“Also recorded” adds a separate entry of the source. No end group written: not given here.

Tested on: Gram+ & Gram− bacteria, fungi, virus, mammalian/cancer cells
Details: cited from earlier work

Substance | Activity
BMAP-28: peptide, source Bovine (GGLRSLGRKILRAWKKYGPIIVPIIRIG; BMAP-28; listed as Bos taurus) | Gram+ & Gram−, Fungi
Ranatuerin-2CB: peptide, source Green frog (GLFLDTLKGLAGKLLQGLKCIKAGCKP; Rana clamitans; Ranatuerin-2CB) | Gram+ & Gram−, Fungi
SEQ ID No. 47: synthetic antifungal peptide, Table 1 (WFKLRF) | Fungi
SEQ ID No. 46: synthetic antifungal peptide, Table 1 (QFKLRF) | Fungi
AC-AMP2: peptide, source Amaranthus caudatus (VGECVRGRCPSGMCCSQFGYCGKGPKYCGR; ends and bridges not checked; cysteine pairing not given here; listed as Amaranthus caudatus) | Gram+, Fungi
AMP1 (MJ-AMP1): peptide, source Garden four-o'clock (QCIGNGGRCNENVGPPYCCSGFCLRQPGQGYGYCKNR; antimicrobial peptidic agent1 (MJ-antimicrobial peptidic agent1); listed as Mirabilis jalapa) | Gram+, Fungi
BMAP-34: peptide, source Bovine (GLFRRLRDSIRRGQQKILEKARRIGERIKDIFRG; BMAP-34; listed as Bos taurus) | Gram+ & Gram−, Fungi
Alpha-basrubrin (Fragment): source Malabar spinach (GADFQECMKEHSQKQHQHQG; Alpha-basrubrin (Fragment); listed as Basella alba) | Virus, Fungi
SEQ ID No. 180: synthetic antifungal peptide, Table 1 (YNLEDHPQGDHPKLQLWHW) | Fungi
Ginkbilobin: source Ginkgo (ANTAFVSSAHNTQKIPAGAPFNRNLRAMLADLRQNAAFAG; Ginkbilobin; listed as Ginkgo biloba) | Gram+ & Gram−, Virus, Fungi
Protegrin 5: peptide, source Pig (RGGRLCYCRPRFCVCVGR; Protegrin 5; listed as Sus scrofa) | Gram+ & Gram−, Virus, Fungi
SEQ ID No. 37: synthetic antifungal peptide, Table 1 (LFKLRF) | Fungi
Termicin: peptide, source Pseudacanthotermes spiniger (ACNFQSCWATCQAQHSIYFRRAFCDRSQCKCVFVRG; Pseudacanthotermes spiniger; Termicin) | Gram+, Fungi
SEQ ID No. 43: synthetic antifungal peptide, Table 1 (SFKLRF) | Fungi
Aurein 1.1: peptide, source Southern bell frog (GLFDIIKKIAESI; Aurein 1.1; listed as Litoria raniformis) | Gram+ & Gram−, Fungi
HNP-5 Defensin: peptide, source Human (QARATCYCRTGRCATRESLSGVCEISGRLYRLCCR; HNP-5 Defensin; listed as Homo sapiens) | Gram+ & Gram−, Fungi
GNCP-2: peptide, source Guinea pig (RCICTTRTCRFPYRRLGTCLFQNRVYTFCC; GNCP-2; listed as Cavia cutleri) | Gram+ & Gram−, Virus, Fungi
SEQ ID No. 185: synthetic antifungal peptide, Table 1 (MSPSTKNIPAPVAGARAGPIHYCVIM; listed as Magnaporthe grisea) | Fungi
SEQ ID No. 183: synthetic antifungal peptide, Table 1 (YMPQGPKLQLWH) | Fungi
SEQ ID No. 187: synthetic antifungal peptide, Table 1 (MPSNTQTSNSSMGVNGYSYCVVM; listed as Cryphonectria parasitica) | Fungi
Ib-AMP4: peptide, source Impatiens balsamina (GRRCCGWGPGRRYCRRWC; Ib-antimicrobial peptidic agent4; listed as Impatiens balsamina) | Gram+ Fungi
Anti-fungal protein 1 (pafp-s): source Phytolacca Americana (AGCIKNGGRCNASAGPPYCCSSYCFQIAGQSYGVCKNR; listed as Phytolacca americana) | Fungi
SEQ ID No. 190: synthetic antifungal peptide, Table 1 (WHWLQLKPGQPMY; listed as Saccharomyces cerevisiae) | Fungi
SEQ ID No. 182: synthetic antifungal peptide, Table 1 (YMPQGPKLQLFHW) | Fungi
Histone H2A (fragment): source Rainbow trout (AERVGAGAPVYL; Oncorhynchus mykiss; Histone H2A (Fragment)) | Gram+, Fungi

Substance | Activity
SEQ ID No. 45: synthetic antifungal peptide, Table 1 (TFKLRF) | Fungi
HNP-6 Defensin: peptide, source Human (STRAFTCHCRRSCYSTEYSYGTCTVMGINHRFCCL; HNP-6 Defensin; listed as Homo sapiens) | Gram+ & Gram−, Fungi
Histatin 3: peptide, source Human (DSHAKRHHGYKRKFHEKHHSHRGYRSNYLYDN; Histatin 3; listed as Homo sapiens) | Gram+ & Gram−, Fungi
Cecropin B: peptide, source Chinese oak silk moth (KWKIFKKIEKVGRNIRNGIIKAGPAVAVLGEAKAL; Cecropin B; listed as Antheraea pernyi) | Gram+ & Gram−, Fungi
BMAP-27: peptide, source Bovine (GRFKRFRKKFKKLFKKLSPVIPLLHLG; BMAP-27; listed as Bos taurus) | Gram+ & Gram−, Fungi
SEQ ID No. 178: synthetic antifungal peptide, Table 1 (WHWLQLKPGQPMY; listed as Saccharomyces cerevisiae) | Fungi
Pseudo-hevein (Minor hevin): peptide, source Para rubber tree (EQCGRQAGGKLCPNNLCCSQYGWCGSSDDYCSPSKNCQSNCKGGG; Pseudo-hevein (Minor hevein); listed as Hevea brasiliensis) | Fungi
Seminalplasmin: peptide, source Bovine (SDEKASPDKHHRFSLSRYAKLANRLANPKLLETFLSKWIGDRGNRSVK; Seminalplasmin; listed as Bos taurus) | Gram+ & Gram−, Fungi,; also recorded: Mammalian cells
Tachystatin A: peptide, source Horseshoe Crab (YSRCQLQGFNCVVRSYGLPTIPCCRGLTCRSYFPGSTYGRCQRY; Tachystatin A Peptide; listed as Tachypleus tridentatus) | Gram+ & Gram−, Fungi
SEQ ID No. 26: synthetic antifungal peptide, Table 1 (LRF) | Fungi
Nigrocin 1: peptide, source Rana nigromaculata (GLLDSIKGMAISAGKGALQNLLKVASCKLDKTC; Nigrocin 1; listed as Rana nigromaculata) | Gram+ & Gram−, Fungi
SEQ ID No. 34: synthetic antifungal peptide, Table 1 (HFKLRF) | Fungi
PW2: peptide, source Synthetic (HPLKQYWWRPSI; Synthetic PW2) | Fungi
Penaeidin-4a: peptide, source Penoeid shrimp (HSSGYTRPLPKPSRPIFIRPIGCDVCYGIPSSTARLCCFRYGDCCHR; Penaeidin-4a; listed as Penaeus vannamei) | Gram+ & Gram−, Fungi
SEQ ID No. 176: synthetic antifungal peptide, Table 1 (CYRFTW) | Fungi
Protegrin 4: peptide, source Pig (RGGRLCYCRGWICFCVGR; Protegrin 4; listed as Sus scrofa) | Gram+ & Gram−, Virus, Fungi
SEQ ID No. 189: synthetic antifungal peptide, Table 1 (QWCRIHGQSCW; listed as Neurospora crassa) | Fungi
SEQ ID No. 39: synthetic antifungal peptide, Table 1 (FHFKLRF) | Fungi
Buforin I: peptide, source Asian toad (AGRGKQGGKVRAKAKTRSSRAGLQFPVGRVHRLLRKGNY; Bufo bufo gargarizans; Buforin 1) | Gram+ & Gram−, Fungi
Protegrin 2: peptide, source Pig (RGGRLCYCRRRFCICV; Protegrin 2; listed as Sus scrofa) | Gram+ & Gram−, Virus, Fungi
SEQ ID No. 32: synthetic antifungal peptide, Table 1 (FFKLRF) | Fungi
SEQ ID No. 27: synthetic antifungal peptide, Table 1 (WRF) | Fungi
Histone H2B-1 (HLP-1) (Fragment): source Rainbow trout (PDPAKTAPKKGSKKAVTKA; Oncorhynchus mykiss; Histone H2B-1(HLP-1)(Fragment)) | Gram+ & Gram−, Fungi
SEQ ID No. 31: synthetic antifungal peptide, Table 1 (FHLRF) | Fungi

Same assay, conditions: classes of organisms/cells the peptide is active against; cited from earlier work

Substance | Activity
Opistoporin 2: peptide, source African yellow leg scorpion (GKVWDWIKSTAKKLWNSEPVKELKNTALNAAKNFVAEKIGATPS; Opistoporin 2; listed as Opistophthalmus carinatus) | Gram+ & Gram−, Fungi,; also recorded: Mammalian cells
Gomesin: peptide, source Synthetic (QCRRLCYKQRCVTYCRGR; Synthetic Gomesin) | Gram+ & Gram−, Fungi,; also recorded: Mammalian cells
Tricholongin: peptide, source Trichoderma longibrachiatum (AGFAAQAAASLAPVAAQQL; Tricholongin; listed as Trichoderma longibrachiatum) | Gram+ & Gram−, Fungi
ADENOREGULIN: peptide, source Two coloured leaf frong (GLWSKIKEVGKEAAKAAAKAAGKAALGAVSEAV; Phyllomedusa bicolor; Adenoregulin) | Gram+ & Gram−, Fungi
